Data published in patent US20120264902A1 (The Regents of the University of Colorado, a body corporate, priority 2011, published 2012).
In brackets after ≈: the same amount, converted by molar mass. Like-named read-outs stand apart in the source and are kept apart here.

Tests used:
[1] = system: E. Coli Mach1-T1®; assay: MIC of 3-HP, microaerobic, 96-well, MOPS minimal media (Examples 2 and 4); format: cell-based, Escherichia coli; details: supplement added to MOPS minimal media, 24 hours
[2] = system: E. Coli K12; format: cell-based, Escherichia coli; details: E. Coli K12, M9 minimal media, control or supplemented, aerobic, 24 hours
Description: Overnight cultures of strains were grown in 5 ml LB (with antibiotic where appropriate) at 37° C. in a shaking incubator. A 1 v/v % was used to inoculate 10 mL of M9 minimal media. After the cells reached mid-exponential phase, the culture was diluted to an OD600 of 0.200. The cells were further diluted 1:20 and a 10 ul aliquot was used to inoculate each well (˜10^4 cells per well). […] The MIC endpoint is the lowest concentration of compound at which there was no visible growth.

[3] = system: Yeast strains, S288 C background; assay: Yeast anaerobic MIC evaluation (Tables 14 and 16); format: cell-based, Saccharomyces cerevisiae; details: for MIC: Saccharomyces cerevisiae, read-out: Average MIC Assay Result (g/L 3-HP)
Description: The minimum inhibitory concentration (MIC) was determined anaerobically in a 96 well-plate format. […] A 1% (v/v) inoculum was introduced into a 5 ml culture of SD minimal media without vitamins. After the cells reached mid-exponential phase, the culture was diluted to an OD600 of 0.200. The cells were further diluted 1:5 and a 10 μL aliquot was used to inoculate each well of a 96 well plate (˜10^4 cells per well) to total volume of 100 uL. […] Plates were incubated for 72 hours at 30 C. […] Plates were sealed in biobag anaerobic chambers that contained gas generators for anaerobic conditions and incubated for 72 hours at 30 C.

[4] = system: Yeast strains, S288 C background; assay: Yeast aerobic MIC evaluation (Tables 13 and 15); format: cell-based; details: Saccharomyces cerevisiae, read-out: Average MIC Assay Result (g/L 3-HP), S288C, SD media, aerobic, MIC of 3-HP with the named supplement (label 3-HP = no supplement)
Description: The minimum inhibitory concentration (MIC) was determined aerobically in a 96 well-plate format. […] A 1% (v/v) inoculum was introduced into a 5 ml culture of SD minimal media without vitamins. After the cells reached mid-exponential phase, the culture was diluted to an OD600 of 0.200. The cells were further diluted 1:5 and a 10 μL aliquot was used to inoculate each well of a 96 well plate (˜10^4 cells per well) to total volume of 100 uL. […] Plates were incubated for 72 hours at 30 C.

[5] = system: E. Coli BW25113; assay: MIC evaluation general protocol, E. Coli aerobic (Tables 6 and 8); format: cell-based; details: for average MIC Assay Result (g/L 3-HP): MIC of 3-HP for strain BW25113 in M9 media with the named supplement(s); for % Increase Over Control: increase of 3-HP MIC vs BW25113 in M9 without supplement
Description: The minimum inhibitory concentration (MIC) was determined aerobically in a 96 well-plate format. […] Overnight cultures of strains were grown in triplicate in 5 mL LB (with antibiotic where appropriate). A 1% (v/v) inoculum was introduced into a 5 ml culture of M9 minimal media.
(§1) For the above MIC evaluations, the final results are expressed in chemical agent concentrations determined by analysis of the stock solution by HPLC (i.e., see Subsection Mb).

[6] = system: E. Coli BW25113; assay: MIC evaluation general protocol, E. Coli anaerobic (Tables 7 and 9); format: cell-based; details: for MIC: Escherichia coli, read-out: MIC Assay Result (g/L 3-HP); for % Increase Over Control: MIC vs BW25113 in M9 without supplement
Description: The minimum inhibitory concentration (MIC) was determined anerobically in a 96 well-plate format. […] Overnight cultures of strains were grown in triplicate in 5 mL LB (with antibiotic where appropriate). A 1% (v/v) inoculum was introduced into a 5 ml culture of M9 minimal media.
as §1

[7] = Preparation of neutralized 3-HP stock solution (observation at neutral pH); format: physicochemical; details: pH 7, aqueous buffer
Source text: (§2) 3-HP was obtained from TCI America (Portland, Oreg.). Significant acrylic acid and 2-oxydipropionic contamination was observed via HPLC analysis. Samples were subsequently treated by diethyl ether extraction to remove acrylic acid and a portion of the 2-oxydipropionic contaminants. Samples were then neutralized with 10 M NaOH to a final pH of 7.0. […] The working stock solution was used for the selection and MIC evaluations in this example.
as §2, with “selection, growth rates” for “selection”

[8] = system: B. subtilis; assay: MIC evaluation general protocol, B. subtilis aerobic (Table 11); format: cell-based, Bacillus subtilis; details: B. subtilis 168, M9 + glu + trp, growth with 3-HP and the named supplement (label 3-HP = no supplement)
Description: The minimum inhibitory concentration (MIC) was determined aerobically in a 96 well-plate format. […] Overnight cultures of strains were grown in triplicate in 5 mL LB (with antibiotic where appropriate). A 1% (v/v) inoculum was introduced into a 5 ml culture of M9 minimal media+glutamate.

[9] = system: MACH1™-T1® E. Coli; assay: IroK expression study, microaerobic MIC, MOPS minimal media, 1 mM IPTG; format: cell-based; details: IroK expressed from pKK223-3; data not shown
Description: The two oligonucleotides were added in a 1:1 ratio and annealed according to standard methodology in a thermal cycler. Ligation of the annealed primer product with the pKK223-3 expression vector (SEQ ID NO:008, Pharmacia, Piscataway, N.J.) was performed with T4 Ligase (Invitrogen, Carlsbad, Calif.) and incubated at 25° C. overnight. The ligation product was then electroporated into competent MACH1™-T1®, plated on LB+ampicillan, and incubated at 37° C. for 24 hours. Plasmids were isolated and confirmed by purification and subsequent restriction digest and sequencing (Macrogen, Rockville, Md.). MICs were then determined corresponding to 1 mM IPTG induction.
The minimum inhibitory concentration (MIC) was determined microaerobically in a 96 well-plate format. Overnight cultures of strains were grown in 5 mL LB (with antibiotic where appropriate). A 1% (v/v) inoculum was introduced into a 15 ml culture of MOPS minimal media. After the cells reached mid-exponential phase, the culture was diluted to an OD600 of 0.200. The cells were further diluted 1:20 and a 10 μL aliquot was used to inoculate each well of a 96 well plate (˜10^4 cells per well).

[10] = BW25113, M9 with supplements at Table 3 levels (or EZ Rich), anaerobic, 24 hours

CCC(=O)C(=O)O [2-oxobutyrate]
MIC increases (3-HP) with supplementation [1]: 7%

O=C([O-])O.[Na+] [Bicarbonate, sodium bicarbonate]
Minimum inhibitory concentration (MIC) of 3-HP [2]: 30 mg/mL

NC(=O)NCCC[C@H](N)C(=O)O [Citrulline (C)]
MIC [3]: 97 g/L (≈ 554 mM) | MIC [4]: 58 g/L

O=C(O)c1cccc(O)c1O [Dihydroxybenzoate, 2,3-dihydroxybenzoic acid]
average MIC Assay Result (g/L 3-HP) [5]: 35 g/L 3-HP | % Increase Over Control [5]: 27% | MIC [6, 10]: 40 g/L (≈ 260 mM) | % Increase Over Control ([6]; anaerobic): 33% | MIC increases (3-HP) with supplementation [1]: 33%

N[C@@H](CCS)C(=O)O [Homocysteine]
average MIC Assay Result (g/L 3-HP) [5]: 30 g/L 3-HP | % Increase Over Control [5]: 9% | % Increase Over Control ([3]; S288C, SD media, anaerobic, MIC with supplement vs no supplement): 7% | MIC [3]: 40 g/L (≈ 296 mM)

N[C@@H](CCO)C(=O)O [Homoserine]
MIC [6, 10]: 30 g/L (≈ 252 mM) | % Increase Over Control ([6]; anaerobic): 0% | MIC increases (3-HP) with supplementation [1]: 33%

CC[C@H](C)[C@H](N)C(=O)O [Isoleucine (B)]
MIC [3]: 38 g/L (≈ 290 mM)

NCCCC[C@H](N)C(=O)O [Lysine]
MIC [3]: 45 g/L (≈ 308 mM) | MIC ([6]; BW25113, 24 h): 41.7 g/L (≈ 285 mM)

CSCC[C@H](N)C(=O)O [Methionine]
MIC [6, 10]: 42.8 g/L (≈ 287 mM) | % Increase Over Control ([6]; anaerobic): 43%

N[C@@H](Cc1ccccc1)C(=O)O [Phenylalanine]
MIC [6, 10]: 32.1 g/L (≈ 194 mM) | % Increase Over Control ([6]; anaerobic): 7% | MIC increases (3-HP) with supplementation [1]: 33%

NCCCCN [Putrescine]
MIC [6, 10]: 35 g/L (≈ 397 mM) | % Increase Over Control ([6]; anaerobic): 17%

N[C@@H](CO)C(=O)O [Serine]
MIC [3]: 45 g/L (≈ 428 mM) | MIC [6, 10]: 32.1 g/L (≈ 305 mM)

O=C(O)C1=C[C@@H](O)[C@@H](O)[C@H](O)C1 [Shikimate (A)]
MIC [3]: 60 g/L (≈ 345 mM) | MIC [4]: 80 g/L

NCCCCNCCCN [Spermidine]
MIC [6, 10]: 35 g/L (≈ 241 mM) | % Increase Over Control ([6]; anaerobic): 17%

O=C(O)CCO [Strain 3-HP, 3-hydroxypropionic acid]
solubility [7]: > 35 mg/mL | Avg 24 hr ΔOD600 [8]: 0.04

C[C@@H](O)[C@H](N)C(=O)O [Threonine]
MIC increases (3-HP) with supplementation [1]: 3%

N[C@@H](Cc1c[nH]c2ccccc12)C(=O)O [Tryptophan]
MIC increases (3-HP) with supplementation [1]: 33%

N[C@@H](Cc1ccc(O)cc1)C(=O)O [Tyrosine]
MIC increases (3-HP) with supplementation [1]: 40%

CC(=O)O [acetic]
MICs of other organic acids with IroK expression [9]: unchanged

C=CC(=O)O [acrylic, acrylic acid]
MICs of other organic acids with IroK expression [9]: unchanged

Cl.NC1CCSC1=O (stereo not drawn) [homocysteine thiolactone hydrochloride]
MIC increases (3-HP) with supplementation [1]: 60%

CC(O)C(=O)O (stereo not drawn) [lactic]
MICs of other organic acids with IroK expression [9]: unchanged

Nc1ccc(C(=O)O)cc1 [p-aminobenzoate]
MIC increases (3-HP) with supplementation [1]: 7%

NNC(=O)c1ccc(O)cc1 [p-hydroxybenzoic acid hydrazide]
MIC increases (3-HP) with supplementation [1]: 33%

Cc1ncc(CO)c(CO)c1O.Cl [pyridoxine hydrochloride]
MIC increases (3-HP) with supplementation [1]: 0%

Tetrahydrofolate
average MIC Assay Result (g/L 3-HP) [5]: 30 g/L 3-HP | % Increase Over Control [5]: 9% | MIC Assay Result (g/L 3-HP) [6, 10]: 40.0 g/L | % Increase Over Control ([6]; anaerobic): 33%
